Results from patent publication US20140235627A1, “ß2-ADRENOCEPTOR AGONIST FOR IMPROVEMENT OF EXERCISE TOLERANCE” (BOEHRINGER INGELHEIM INTERNATIONAL GMBH, priority 2012, published 2014).

What was measured:
Type in all cases: in vivo, human
patients with COPD [1] = assay: Intensity of breathing discomfort (Borg Scale) at isotime during exercise (studies 1222.37 and 1222.38); conditions: after 6 weeks
From the text: (§1) Constant work rate cycle ergometry at 75% Wcap was selected as the exercise modality based on previous experience with other bronchodilators. The primary efficacy endpoint was endurance time, while IC at isotime and the intensity of breathing discomfort at isotime were key secondary endpoints. Isotime was defined as the endurance time of the constant work rate exercise test of shortest duration, which ensured that IC and intensity of breathing discomfort were compared across treatments at the same time of exercise for an individual.

patients with COPD [2] = assay: Inspiratory capacity (IC) at isotime during exercise (studies 1222.37 and 1222.38); conditions: after 6 weeks
From the text: as §1

patients with COPD [3] = assay: Endurance time during constant work rate cycle ergometry at 75% Wcap (studies 1222.37 and 1222.38); conditions: after 6 weeks
From the text: While, the FDA COPD draft guidance for industry notes that—assessment of exercise capacity by treadmill or cycle ergometry combined with lung volume assessment potentially can be a tool to assess efficacy of a drug (Guidance for industry: chronic obstructive pulmonary disease: developing drugs for treatment (draft guidance, November 2007). Rockville: U.S. Department of Health and Human Services, Food and Drug Administration, Center for Drug Evaluation and Research (CDER) (2007)) two studies (1222.37 & 1222.38) were designed to evaluate the effects of olodaterol on improvement of exercise.
as §1
At baseline, the geometric mean exercise endurance time during constant work rate cycle ergometry to symptom limitation at 75% of maximal work capacity was 414 seconds (6 minutes 54 seconds) in study 1222.37 and 374 seconds (6 minutes 14 seconds) in study 1222.38.

patients with COPD [4] = assay: Rescue medication use (electronic diary) in 48-week pivotal studies; conditions: for Reduction in daytime rescue bronchodilator use compared to placebo / Reduction in nighttime rescue bronchodilator use compared to placebo: at 48 weeks
Experimental: Additionally to that rescue medication use was assessed in 48-week pivotal studies using an electronic diary, indicated whether the bronchodilating effects of olodaterol provided sufficient symptomatic benefit to reduce the need for albuterol to control symptoms on a daily and nightly basis.

[5] = study 1222.37, olodaterol 5 μg, listed as olodaterol
[6] = study 1222.37, olodaterol 10 μg
[7] = study 1222.37, olodaterol 10 μg, listed as olodaterol
[8] = study 1222.38, olodaterol 5 μg, listed as olodaterol
[9] = study 1222.38, olodaterol 10 μg
[10] = study 1222.38, olodaterol 10 μg, listed as olodaterol

For `COc1ccc(CC(C)(C)NC[C@H](O)c2cc(O)cc3c2OCC(=O)N3)cc1` [Olodaterol], the “Intensity of Breathing Discomfort at Isotime During Exercise, Treatment mean (SE)” value (from here on “Intensity … Treatment mean (SE)”) (patients with COPD [1]; study 1222.37, olodaterol 5 μg) was 5.104 (0.182) Borg Scale, the “Intensity of Breathing Discomfort at Isotime, Difference to placebo Mean (SE)” value (“Intensity … Difference to placebo Mean (SE)” for short) (patients with COPD [1]; study 1222.37, olodaterol 5 μg) was −0.766 (0.223) Borg Scale and the “Intensity … Difference to placebo Mean (SE)” value (patients with COPD [1]; [5]) was “statistically significant reduction”. The “Intensity … Treatment mean (SE)” value (patients with COPD [1]; [6]) was 5.235 (0.185) Borg Scale, the “Intensity … Difference to placebo Mean (SE)” value (patients with COPD [1]; [6]) was −0.634 (0.225) Borg Scale and the “Intensity … Difference to placebo Mean (SE)” value (patients with COPD [1]; [7]) was “statistically significant reduction”. For the same compound, the “Intensity … Treatment mean (SE)” value (patients with COPD [1]; study 1222.38, olodaterol 5 μg) was 5.250 (0.180) Borg Scale, the “Intensity … Difference to placebo Mean (SE)” value (patients with COPD [1]; study 1222.38, olodaterol 5 μg) was −0.336 (0.214) Borg Scale and the “Intensity … Difference to placebo Mean (SE)” value (patients with COPD [1]; [8]) was “no significant differences”. The “Intensity … Treatment mean (SE)” value (patients with COPD [1]; [9]) was 5.520 (0.181) Borg Scale, the “Intensity … Difference to placebo Mean (SE)” value (patients with COPD [1]; [9]) was −0.066 (0.214) Borg Scale and the “Intensity … Difference to placebo Mean (SE)” value (patients with COPD [1]; [10]) was “no significant differences”. For the same compound, the “Adjusted Mean Inspiratory Capacity at Isotime During Exercise, Treatment mean (SE)” value (“Adjusted Mean Inspiratory Capacity … (SE)” for short) (patients with COPD [2]; study 1222.37, olodaterol 5 μg) was 2.099 (0.038) L, the “Inspiratory Capacity at Isotime, Mean (SE) compared to placebo” value (patients with COPD [2]; study 1222.37, olodaterol 5 μg) was 0.182 (0.036) L and the “Inspiratory Capacity at Isotime, Mean (SE) compared to placebo” value (patients with COPD [2]; [5]) was “statistically significant increase”. The “Adjusted Mean Inspiratory Capacity … (SE)” value (patients with COPD [2]; [6]) was 2.091 (0.038) L, the “Inspiratory Capacity at Isotime, Mean (SE) compared to placebo” value (patients with COPD [2]; [6]) was 0.174 (0.036) L and the “Inspiratory Capacity at Isotime, Mean (SE) compared to placebo” value (patients with COPD [2]; [7]) was “statistically significant increase”. The “Adjusted Mean Inspiratory Capacity … (SE)” value (patients with COPD [2]; study 1222.38, olodaterol 5 μg) was 2.246 (0.039) L, the “Inspiratory Capacity at Isotime, Mean (SE) compared to placebo” value (patients with COPD [2]; study 1222.38, olodaterol 5 μg) was 0.084 (0.035) L and the “Inspiratory Capacity at Isotime, Mean (SE) compared to placebo” value (patients with COPD [2]; [8]) was “statistically significant increase”. For the same compound, the “Adjusted Mean Inspiratory Capacity … (SE)” value (patients with COPD [2]; [9]) was 2.328 (0.039) L, the “Inspiratory Capacity at Isotime, Mean (SE) compared to placebo” value (patients with COPD [2]; [9]) was 0.166 (0.034) L and the “Inspiratory Capacity at Isotime, Mean (SE) compared to placebo” value (patients with COPD [2]; [10]) was “statistically significant increase”. The “Adjusted Mean Endurance Time, Treatment Mean (SE)” value (patients with COPD [3]; study 1222.37, olodaterol 5 μg) was 421.58 (13.459) Seconds, the “Endurance time increase compared with placebo” value (from here on “Endurance time increase”) (patients with COPD [3]; study 1222.37, olodaterol 5 μg) was 14.0% and the “Adjusted Mean Endurance Time, Treatment Mean (SE)” value (patients with COPD [3]; [6]) was 420.72 (13.602) Seconds. The “Endurance time increase” value (patients with COPD [3]; [6]) was 13.8%, the “Adjusted Mean Endurance Time, Treatment Mean (SE)” value (patients with COPD [3]; study 1222.38, olodaterol 5 μg) was 396.31 (13.680) Seconds and the “Endurance time increase” value (patients with COPD [3]; study 1222.38, olodaterol 5 μg) was 11.8%. The “Adjusted Mean Endurance Time, Treatment Mean (SE)” value (patients with COPD [3]; [9]) was 391.45 (13.566) Seconds, the “Endurance time increase” value (patients with COPD [3]; [9]) was 10.5% and the “Reduction in daytime rescue bronchodilator use compared to placebo” value (patients with COPD [4]; 1222.11/12, 5 μg) was −0.455 units. The “Reduction in nighttime rescue bronchodilator use compared to placebo” value (patients with COPD [4]; 1222.11/12, 5 μg) was −0.497 units, the “Reduction in daytime rescue bronchodilator use compared to placebo” value (patients with COPD [4]; 1222.11/12, 10 μg) was −0.574 units and the “Reduction in nighttime rescue bronchodilator use compared to placebo” value (patients with COPD [4]; 1222.11/12, 10 μg) was −0.775 units. The “Reduction in daytime rescue bronchodilator use compared to placebo” value (patients with COPD [4]; 1222.13/14, 5 μg) was −0.269 units, the “Reduction in nighttime rescue bronchodilator use compared to placebo” value (patients with COPD [4]; 1222.13/14, 5 μg) was −0.530 units and the “Reduction in daytime rescue bronchodilator use compared to placebo” value (patients with COPD [4]; 1222.13/14, 10 μg) was −0.337 units. The “Reduction in nighttime rescue bronchodilator use compared to placebo” value (patients with COPD [4]; 1222.13/14, 10 μg) was −0.617 units and the “Reduction in daytime and nighttime rescue medication use relative to twice-daily formoterol” value (patients with COPD [4]; studies 1222.13, 1222.14, once-daily olodaterol) was “comparable to twice-daily formoterol”.
